This is an account of results in patent publication US20080008773A1, “Food beverage or feed for the promotion of osteogenesis comprising umbelliferae, liliaceae or compositae plant species” (priority 2002, published 2008).

SMILES strings stand for the structures.

One experiment deals with ST-2 cells. As to the kind of experiment: Induction of differentiation of ST-2 cells into osteoblasts (alkaline phosphatase as index). The format is cell-based, Mouse. The method, then: (§1) (1) Mouse interstitial cell strain ST-2 was suspended in DMEM medium (manufactured by Bio Whittaker) containing 10% fetal bovine serum (manufactured by Bio Whittaker) so as to have a concentration of 3×10^4 cells/ml. The suspension was put to a 96-well plate in an amount of 0.1 ml per well, and the cells were cultured sterilely. After the cells were cultured for 2 days, the medium was exchanged with a fresh medium. The compound a derived from root portions of Angelica keiskei koidz. obtained in Example 1 was added thereto as a sample, and the cells were cultured for 3 days. Subsequently, differentiation of ST-2 cells into osteoblasts was measured using alkaline phosphatase as an index. The cells were washed once with PBS, 100 μl of a reaction substrate solution (100 mM diethanolamine buffer, pH 10.0, 2 mM magnesium chloride, 1 mM p-nitrophenyl phosphate) was added thereto, and the reaction was carried out at 37° C. for 30 minutes. Next, the reaction was terminated with adding 100 μl of 0.2 N sodium hydroxide, and the amount of p-nitrophenol which was released was determined by determining absorbance at 405 nm. The activity for induction of differentiation into osteoblasts was shown by setting a group without addition of the sample as a control, and defining alkaline phosphatase activity of the control as 100%. The experiments were carried out twice, and the average was taken.

The test system of a further experiment is MC3T3-E1 cells. As to the kind of experiment: Induction of differentiation of MC3T3-E1 cells into osteoblasts (alkaline phosphatase as index). The format is cell-based, Mouse. As for the experimental part:
as §1
Mouse pre-osteoblast strain MC3T3-E1 was suspended in DMEM medium containing 10% fetal bovine serum so as to have a concentration of 3×10^4 cells/ml. The suspension was put to a 96-well plate in an amount of 0.1 ml per well, and the cells were cultured sterilely. After the cells were cultured for 2 days, the medium was exchanged with a fresh medium. The compound a derived from root portions of Angelica keiskei koidz. obtained in Example 1 was added thereto as a sample, and the cells were cultured for 5 days. Subsequently, the differentiation into osteoblasts was determined using alkaline phosphatase as an index in the same manner as in Example 2.

With `CC12CCC(O)C(C)(C)C1Cc1c(O)ccc(C(=O)/C=C/c3ccc(O)cc3)c1O2` (single isomer, unassigned) [Compound a, (E)-1-(5,6,7,8,8a,10a-hexahydro-1,7-dihydroxy-8,8,10a-trimethyl-9H-xanthen-4-yl)-3-(4-hydroxyphenyl)-2-propen-1-one], the “Induction of differentiation into osteoblasts (in words)” value in the experiment with ST-2 cells was “induces differentiation into osteoblasts in a concentration-dependent manner”; with MC3T3-E1 cells, “induces the differentiation into osteoblasts in a concentration-dependent manner”. The activity at 0.313 µM with ST-2 cells (Mus musculus, 72 h, 0.313 μM, cultured 3 days, control without sample = 100%) was determined as 219%. Also, in the experiment with ST-2 cells (Mus musculus, 72 h, 0.625 μM, cultured 3 days, control without sample = 100%), the activity at 0.625 µM came to 260%. Moreover, the activity at 1.25 µM came to 358% in the experiment on ST-2 cells (Mus musculus, 72 h, 1.25 μM, cultured 3 days, control without sample = 100%) and 171% in the experiment on MC3T3-E1 cells (Mus musculus, 120 h, 1.25 μM, cultured 5 days, control = 100%). In the experiment with MC3T3-E1 cells (Mus musculus, 120 h, 2.5 μM, cultured 5 days, control = 100%), the activity at 2.5 µM amounted to 292%.
